Test results: patent US12433909B2, “Formulations of cyclic macromolecule-based nanoparticles encapsulating small molecules” (Board of Regents of The University of Texas System, priority 2019, dated 2025)
Each block holds one molecule with its values, some of them ahead of it.

How the values were obtained:
[1] = mouse, in vivo
Method: All animal procedures were approved by the Institutional Animal Care and Use Committee at University of Texas Health Science at Houston in accordance with all relevant guidelines. Healthy, female NSG mice were used for in vivo experiments. CDN nanoparticles were administered by direct infusion into the cisternal magna. Briefly, mice were anesthetized with isoflurane (2%) and mounted on a stereotaxic frame (Kopf Instruments, Tujunga, CA, USA). With the head tilted forward, an incision was made across the back of the neck and muscles were gentle retracted to expose the atlanto-occipal membrane. A Hamilton syringe (29 gauge needle, 30° bevel tip) in a 2 uL volume delivered over 1 minute at an injection dept of 1 mm. The needle was left in place for an additional 2 minutes to prevent backflow. All animals received a subcutaneous injection of buprenorphine (1 mg/kg) prior to surgery, and other analgesics to control pain. For MTD studies, panobinostat loaded CDN-4 nanoparticles were administered at increasing concentrations. […] For pharmacokinetic studies, mice received CDN-4 nanoparticles at a dose of 560 ug panobinostat and euthanized at specified time points (1, 4, 8, 24, and 48 hours after nanoparticle administration, n=5 mice per time point). One mouse in the 24 hour time point died during surgery, leaving n=4 for that experimental group. […]

[2] = background statement; cited from earlier work
GL261 cells = test: in vitro GL261 cell viability assay (CellTiter-Glo); format: cell-based, murine; settings: 72 hours of incubation, CDN-4 21% drug loaded
Method: For IC50 experiments, GL261 cells were seeded at […] into 96 well plates containing Dulbecco's Modified Eagle Medium (DMEM) and 10% Fetal Bovine Serum (FBS). Cells were given 4 hours to adhere prior to drug treatments. Free panobinostat, drug-loaded and blank CDN-4 (21% drug loaded) were dispersed in 2.5% DMSO in cell culture media at 10 mg/mL drug concentration. Equivalent doses were added to the 96 well plates at 16 serial dilutions with concentrations from 0-70 μM and incubated at 37° C. with 5% CO2 for 72 hours. Cell viability was determined with an IC50 value obtained from a CellTiter-Glo Luminescence assay and calculated using GraphPad Prism (San Diego, CA USA). For uptake experiments, GL261 cells were seeded at 90,000 cells/1 mL into 48 well plates containing DMEM and 10% FBS. Panobinostat loaded CDN-4 nanoparticles (250 ug) were incubated with cells for 48 hours, after which cells were thoroughly washed, fixed, and counterstained with DAPI. Images were collected on an upright Nilkon Ti2 microscope.

[3] = experimental drug loading in CDN nanoparticles, quantified by absorbance; format: physicochemical; settings: for drug loading in CDNs 1-3: theoretical loading of 10% (w/w)
Method: Panobinostat-loaded nanoparticles were formulated by doping a given concentration of the drug with CDN in 2.5 vol % DMSO-aqueous medium. Panobinostat was added at different theoretical loadings, and the amount of panobinostat incorporated into the network after thorough washing was quantified by absorbance.
An aqueous dispersion (2.0 mL) of blank CDN nanoparticles (10 mg/mL) was doped with DMSO (50 uL) solution of panobinostat (40 mg/mL; 10% theoretical loading). The aqueous dispersion was left to agitate for 18 h, and subjected to concentration via ultrafiltration through Amicon Ultra-15 centrifugal filters (3 kDa MWCO, […]) for 4, 20 mins spins at 5000 RCF. Aliquots were frozen and lyophilized for later studies.
Drug loading was quantified by absorbance ([…] for quisinostat, panobinostat and dacinostat; 285 nm for givinostat; 365 nm for camptothecin; 550 nm for Nile Red) on a Tecan plate reader. Lyophilized nanoparticles were dissolved at 5 mg/ml in DMSO. Samples were plated in triplicate ([…], nanoparticles and 10 μL DMSO per well) in a clear, flat bottom 96-well assay plate. A control curve was constructed in technical triplicate by adding 40 μL blank nanoparticles per well and spiking with 10 μL of known drug concentration in DMSO. Experimental drug loading was calculated as mass of drug/mass of nanoparticles (w/w %). 40 μL of bortezomib loaded nanoparticles (5 mg/ml aqueous solution) were extracted with 100 μL of ethylacetate. The ethylacetate layer was collected and dried under nitrogen. The contents were dissolved in 40 μL of DMSO and plated in triplicate. A control curve was constructed in technical triplicate by spiking with 10 μL of known drug concentration in DMSO. Absorbance was measured at 285 nm. Experimental drug loading was calculated as mass of drug/mass of nanoparticles (w/w %).

Compound: Cc1[nH]c2ccccc2c1CCNCc1ccc(/C=C/C(=O)NO)cc1 [panobinostat]
panobinostat in plasma [1]: undetectable | water solubility [2]: poorly water soluble | IC50 (GL261 cells; Mus musculus, GL261): 170 nM

experimental loading with all the CDNs ([3]; control hydrophilic drug, data not shown): poor experimental loading
Compound: Nc1ccn([C@@H]2O[C@H](CO)[C@@H](O)[C@@H]2O)c(=O)n1 [cytarabine]

drug loading in CDNs 1-3 [3]: loaded particularly well
Compound: CCN(CC)Cc1ccc2cc(COC(=O)Nc3ccc(C(=O)NO)cc3)ccc2c1 [givinostat]

Compound: Cc1[nH]c2ccccc2c1CCNCc1ccc(/C=C/C(=O)NO)cc1 [non-CDN-formulated Pb]
IC50 (GL261 cells): 230 nM

drug loading in CDNs 1-3 [3]: loaded particularly well
Compound: O=C(/C=C/c1ccc(CN(CCO)CCc2c[nH]c3ccccc23)cc1)NO [dacinostat]

drug loading in CDNs 1-3 [3]: loaded particularly well
Compound: Cn1cc(CNCC2CCN(c3ncc(C(=O)NO)cn3)CC2)c2ccccc21 [quisinostat]

drug loading in CDNs 1-3 [3]: loaded particularly well
Compound: CC(C)C[C@H](NC(=O)[C@H](Cc1ccccc1)NC(=O)c1cnccn1)B(O)O [bortezomib]
